Assays:
[1] = Pharmacokinetics following a single dose in rat (LC-MS/MS of blood, one-compartment model); assay type: in vivo; conditions: single oral dose
Procedure: Compounds were administered as a single dose (either 1 mg/kg bodyweight in 5% DMSO via the intravenous route or 3 mg/kg in 1% carboxymethylcellulose via the oral route) to three adult rats (using different rats for each compound and each route of administration).
Blood was then sampled at various time points (including just prior to dose administration) out to 24 hrs post dose, and the level of the various compounds was assessed using a validated LC-MS/MS assay. Briefly, 3-5 μl of the deproteinised sample was applied to a Waters Atlantis (C18 20×2.1 mm, 3 μm bead size) reverse phase chromatography column equilibrated in 0.1% formic acid in 95:5 water:actetonitrile. Over 3.5 minutes bound material was gradient eluted reaching 0.1% formic acid in 5:95 water:acetonitrile, followed by a step gradient back to 0.1% formic acid in 95:5 water:acetonitrile. The column eluent was then directed to an Applied Biosystems API 4000/3200 QTrap MS/MS mass spectrometer, with a Turbolonspray™ ion source operating in positive ion mode. The interface temperature was set at 650° C., with a 40 ms dwell time for each MRM transition, monitoring the following ions:
The internal standard in each determination was the related compound (S)-3-(2′,2′-dimethylpropanoylamino)-caprolactam, which was spiked into the sample prior to deproteinization. The lower limit of quantitation (LLOQ) for this assay was 2.4 ng/ml for each compound except (I′), where it was 38.1 ng/ml.
Following LC-MS/MS analysis of each collected sample, the pharmacokinetic disposition of the compound was modelled using Kinetica software, a well known software package for such applications.

[2] = Water solubility (observation); assay type: physicochemical
[3] = system: chemokine-induced migration; test: BSCI activity in vitro, chemokine-induced migration (general statements); assay type: cell-based; conditions: prior art peptides compared
[4] = Potency in vivo, model not stated; conditions: prior art peptides compared
[5] = in vivo, cited from earlier work

Molecule: CC(C)(C)C(=O)NC1CCCNC1=O (stereo not drawn) [Compound (I), 3-(2′,2′-dimethylpropanoylamino)-tetrahydropyridin-2-one]
- exposure following a single oral dose, fold higher than the other lactam BSCIs tested [1]: more than 10 fold
- water solubility [2]: significant water solubility

Molecule: c(DCys-DGln-DIle-DTrp-DLys-DGln-DLys-DPro-DAsp-DLeu-DCys)-NH2 [NR58-3.14.3]
- fold less potent in vitro [3]: > 25 fold
- fold less potent in vivo [4]: > 10,000 fold
- half-life period of clearance from blood plasma ([5]; iv): less than 30 minutes
- oral bioavailability ([5]; po): not orally bioavailable

Reference: patent US7897620B2, “Methods of using anti-inflammatory compounds” (Cambridge Enterprise Limited, priority 2007, dated 2011)
